Experimental data taken from PubChem BioAssay AID330 (DTP/NCI, 2004).
Where “and” joins values, the source holds several entries; their conditions need not be identical. Equal entries are not always repeated. Toxic doses and inconclusive results are not listed.

System: P388 leukemia ip, CD2F1 mice, survival T/C
Assay: NCI In Vivo Anticancer Drug Screen. Data for tumor model P388 Leukemia (intraperitoneal) in CD2F1 (CDF1) mice
Details: endpoint: median survival time, higher = longer survival
In short: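 Mice carrying the transplanted tumor received test compound or vehicle. Survival was recorded in each group, and the value is the treated-group measurement divided by that of the vehicle-treated control group.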

[1] = dose: 50.0 mg/kg/injection, schedule: Q01DX009 (ip), vehicle: saline with Tween-80
[2] = dose: 100.0 mg/kg/injection, schedule: Q01DX009 (ip), vehicle: saline with Tween-80
[3] = dose: 200.0 mg/kg/injection, schedule: Q01DX009 (ip), vehicle: saline with Tween-80
[4] = dose: 50.0 mg/kg/injection, schedule: Q01DX009 (ip), vehicle: Klucel (hydroxypropylcellulose) (HPC)
[5] = dose: 100.0 mg/kg/injection, schedule: Q01DX009 (ip), vehicle: Klucel (hydroxypropylcellulose) (HPC)
[6] = dose: 200.0 mg/kg/injection, schedule: Q01DX009 (ip), vehicle: Klucel (hydroxypropylcellulose) (HPC)
[7] = dose: 60.0 mg/kg/injection, schedule: Q01DX005 (ip), vehicle: saline with Tween-80
[8] = dose: 120.0 mg/kg/injection, schedule: Q01DX005 (ip), vehicle: saline with Tween-80
[9] = dose: 240.0 mg/kg/injection, schedule: Q01DX005 (ip), vehicle: saline with Tween-80
[10] = dose: 50.0 mg/kg/injection, schedule: Q01DX009 (ip), vehicle: saline
[11] = dose: 50.0 mg/kg/injection, schedule: Q01DX005 (ip), vehicle: Klucel (hydroxypropylcellulose) (HPC)
[12] = dose: 100.0 mg/kg/injection, schedule: Q01DX005 (ip), vehicle: Klucel (hydroxypropylcellulose) (HPC)
[13] = dose: 200.0 mg/kg/injection, schedule: Q01DX005 (ip), vehicle: Klucel (hydroxypropylcellulose) (HPC)

COc1cccc2c1C(=O)c1c(O)c3c(c(O)c1C2=O)C[C@@](O)(C(=O)CO)C[C@@H]3OC1CC(N2CCCCC2)C(O)C(C)O1 (some centres undefined)
T/C (dose: 0.78 mg/kg/injection, schedule: Q01DX009 (ip), vehicle: water): 151 % of control
T/C (dose: 1.2 mg/kg/injection, schedule: Q04DX003 (ip), vehicle: water): 100 % of control
T/C (dose: 1.56 mg/kg/injection, schedule: Q01DX009 (ip), vehicle: water): 184 % of control
T/C (dose: 2.4 mg/kg/injection, schedule: Q04DX003 (ip), vehicle: water): 113 % of control
T/C (dose: 3.13 mg/kg/injection, schedule: Q01DX009 (ip), vehicle: water): 190 % of control
T/C (dose: 4.7 mg/kg/injection, schedule: Q04DX003 (ip), vehicle: water): 106 % of control
T/C (dose: 9.4 mg/kg/injection, schedule: Q04DX003 (ip), vehicle: water): 155 % of control
T/C (dose: 37.5 mg/kg/injection, schedule: Q04DX003 (ip), vehicle: water): 87 % of control

CCCC#CC(=O)OC
T/C [1]: 97 % of control
T/C [2]: 100 % of control
T/C [3]: 106 % of control

CC(=O)N1c2ccccc2N(C(C)=O)c2nc3ccccc3nc21
T/C [4]: 100 % of control
T/C [5]: 100 % of control
T/C [6]: 100 % of control

COC(=O)/C=N/NS(=O)(=O)c1ccc(C)cc1
T/C (dose: 12.5 mg/kg/injection, schedule: Q01DX009 (ip), vehicle: other): 102 % of control
T/C (dose: 25.0 mg/kg/injection, schedule: Q01DX009 (ip), vehicle: other): 102 % of control
T/C (dose: 50.0 mg/kg/injection, schedule: Q01DX009 (ip), vehicle: other): 100 % of control
T/C (dose: 100.0 mg/kg/injection, schedule: Q01DX009 (ip), vehicle: other): 100 % of control

CNC(=O)N=Nc1ccccc1
T/C (dose: 50.0 mg/kg/injection, schedule: Q01DX005 (ip), vehicle: saline + Tween-80 + alcohol): 100 % of control
T/C (dose: 100.0 mg/kg/injection, schedule: Q01DX005 (ip), vehicle: saline + Tween-80 + alcohol): 100 % of control
T/C (dose: 200.0 mg/kg/injection, schedule: Q01DX005 (ip), vehicle: saline + Tween-80 + alcohol): 100 % of control

C1=C[N]2c3c4c(ccc3=C1)=CC=C[N]4[Ga]2[c]1ccccc1
T/C (dose: 6.25 mg/kg/injection, schedule: Q01DX009 (ip), vehicle: Klucel (hydroxypropylcellulose) (HPC)): 103 % of control
T/C (dose: 12.5 mg/kg/injection, schedule: Q01DX009 (ip), vehicle: Klucel (hydroxypropylcellulose) (HPC)): 106 % of control
T/C (dose: 25.0 mg/kg/injection, schedule: Q01DX009 (ip), vehicle: Klucel (hydroxypropylcellulose) (HPC)): 118 % of control

COc1ccc(C2COc3cc(O)c(O)cc3C2)cc1OC (centres undefined)
T/C [7]: 101 % of control
T/C [8]: 97 % of control
T/C [9]: 101 % of control

CC(C)=CCC(OC(=O)C=C(C)C)c1cc(O)c2c(O)ccc(O)c2c1O.[Co] (centres undefined)
T/C (dose: 100.0 mg/kg/injection, schedule: Q01DX001 (ip), vehicle: saline with Tween-80): 103 % of control
T/C (dose: 200.0 mg/kg/injection, schedule: Q01DX001 (ip), vehicle: saline with Tween-80): 101 % of control
T/C (dose: 400.0 mg/kg/injection, schedule: Q01DX001 (ip), vehicle: saline with Tween-80): 113 % of control

CCOC(=O)CC1(C)OCCO1
T/C [10]: 98 % of control
T/C (dose: 100.0 mg/kg/injection, schedule: Q01DX009 (ip), vehicle: saline): 99 % of control
T/C (dose: 200.0 mg/kg/injection, schedule: Q01DX009 (ip), vehicle: saline): 99 % of control
T/C (dose: 400.0 mg/kg/injection, schedule: Q01DX009 (ip), vehicle: saline): 101 % of control

CCCCCCCCCCCC(=O)Nc1ncnc2nc[nH]c12
T/C [4]: 93 % of control
T/C [5]: 95 % of control
T/C [6]: 98 % of control
T/C (dose: 400.0 mg/kg/injection, schedule: Q01DX009 (ip), vehicle: Klucel (hydroxypropylcellulose) (HPC)): 104 % of control

CC1(C)COC(=O)C(C(=O)O)=C1C(=O)O
T/C [1]: 90 % of control
T/C [2]: 87 % of control
T/C [3]: 90 % of control

CNC(=O)Nc1[nH]c(=O)ncc1I
T/C (dose: 30.0 mg/kg/injection, schedule: Q01DX005 (ip), vehicle: Klucel (hydroxypropylcellulose) (HPC)): 100 % of control
T/C (dose: 60.0 mg/kg/injection, schedule: Q01DX005 (ip), vehicle: Klucel (hydroxypropylcellulose) (HPC)): 96 % of control
T/C (dose: 120.0 mg/kg/injection, schedule: Q01DX005 (ip), vehicle: Klucel (hydroxypropylcellulose) (HPC)): 117 % of control

C/C(=N/NC(=O)c1ccccc1)C(=O)OC(=NC1CCCCC1)NC1CCCCC1
T/C (dose: 100.0 mg/kg/injection, schedule: Q04DX002 (ip), vehicle: Klucel (hydroxypropylcellulose) (HPC)): 99 % of control
T/C (dose: 200.0 mg/kg/injection, schedule: Q04DX002 (ip), vehicle: Klucel (hydroxypropylcellulose) (HPC)): 95 % of control
T/C (dose: 400.0 mg/kg/injection, schedule: Q04DX002 (ip), vehicle: Klucel (hydroxypropylcellulose) (HPC)): 96 % of control

O=C(Nc1ccc(O)c2c1C(=O)c1ccccc1C2=O)Oc1ccccc1
T/C [11]: 101 % of control
T/C [12]: 102 % of control
T/C [13]: 99 % of control

O=C(Cc1n[nH]c(=S)nc1CC(=O)c1ccccc1)c1ccccc1
T/C [7]: 98 % of control
T/C [8]: 97 % of control
T/C [9]: 105 % of control

NC(=O)CCNC(=O)CCCNC(=O)CCNC(=O)OCc1ccccc1
T/C (dose: 12.5 mg/kg/injection, schedule: Q01DX009 (ip), vehicle: distilled water + Tween-80): 96 % of control
T/C (dose: 25.0 mg/kg/injection, schedule: Q01DX009 (ip), vehicle: distilled water + Tween-80): 110 % of control
T/C (dose: 50.0 mg/kg/injection, schedule: Q01DX009 (ip), vehicle: distilled water + Tween-80): 97 % of control
T/C (dose: 100.0 mg/kg/injection, schedule: Q01DX009 (ip), vehicle: distilled water + Tween-80): 105 % of control
T/C (dose: 200.0 mg/kg/injection, schedule: Q01DX009 (ip), vehicle: distilled water + Tween-80): 96 % of control

COc1ccc(CCN(CCC#N)C(=O)C(Cl)Cl)cc1
T/C [11]: 97 % of control
T/C [12]: 97 % of control
T/C [13]: 99 % of control

C[n+]1ccc(C#N)c2ccccc21
T/C (dose: 3.75 mg/kg/injection, schedule: Q01DX009 (ip), vehicle: saline with Tween-80): 95 % of control
T/C (dose: 7.5 mg/kg/injection, schedule: Q01DX009 (ip), vehicle: saline with Tween-80): 109 % of control
T/C (dose: 15.0 mg/kg/injection, schedule: Q01DX009 (ip), vehicle: saline with Tween-80): 118 % of control

N#Cc1c(Cl)nsc1-c1ccc([N+](=O)[O-])cc1
T/C [4]: 119 % of control
T/C [5]: 92 % of control
T/C [6]: 103 % of control

O=C1N(c2ccccc2)C(=O)N1c1ccccc1
T/C (dose: 25.0 mg/kg/injection, schedule: Q01DX009 (ip), vehicle: saline with Tween-80): 93 % of control
T/C [1]: 99 % of control
T/C [2]: 108 % of control
T/C [3]: 97 % of control

O=C(CSc1nnc(-c2ccc(Cl)cc2)s1)Nc1nccs1
T/C [7]: 89 % of control
T/C [8]: 89 % of control
T/C [9]: 89 % of control

Nc1cccc2c1C(=O)c1cccc(Cl)c1C2=O
T/C (dose: 100.0 mg/kg/injection, schedule: Q04DX003 (ip), vehicle: saline with Tween-80): 104 % of control
T/C (dose: 200.0 mg/kg/injection, schedule: Q04DX003 (ip), vehicle: saline with Tween-80): 104 % of control
T/C (dose: 400.0 mg/kg/injection, schedule: Q04DX003 (ip), vehicle: saline with Tween-80): 100 % of control

Nc1ncnc2[nH]c(=S)[nH]c12
T/C (dose: 1.56 mg/kg/injection, schedule: Q01DX005 (ip), vehicle: Klucel (hydroxypropylcellulose) (HPC)): 110 % of control
T/C (dose: 3.12 mg/kg/injection, schedule: Q01DX005 (ip), vehicle: Klucel (hydroxypropylcellulose) (HPC)): 94 % of control
T/C (dose: 6.25 mg/kg/injection, schedule: Q01DX005 (ip), vehicle: Klucel (hydroxypropylcellulose) (HPC)): 99 % of control and 97 % of control

CCOc1cccc(Cl)n1
T/C [1]: 104 % of control
T/C [2]: 100 % of control
T/C [3]: 90 % of control

CCCCCCCCCC[N+](C)(C)CCCO
T/C (dose: 12.5 mg/kg/injection, schedule: Q01DX009 (ip), vehicle: saline): 96 % of control
T/C (dose: 25.0 mg/kg/injection, schedule: Q01DX009 (ip), vehicle: saline): 112 % of control
T/C [10]: 118 % of control

CC(CN(C)C)OC(=O)C1(c2ccccc2)CCOc2ccccc21 (centres undefined)
T/C [7]: 108 % of control
T/C [8]: 108 % of control
T/C [9]: 109 % of control
